The results in this text go back to patent US20220233708A1, “ANTIBODY-DRUG CONJUGATE, INTERMEDIATE THEREOF, PREPARATION METHOD THEREFOR AND APPLICATION THEREOF” (priority 2019, published 2022).

Data set [1] has as its system anti-Claudin18.2 antibody IMAB362. The data set is described as follows: Coupling of linker-drug conjugates with IMAB362. It counts as physicochemical. The settings on record: coupling with IMAB362, highest DAR (excessive coupling). The procedure: (§1) The anti-B7-H3 antibody P2E5, anti-Claudin18.2 antibody IMAB362, and anti-HER2 antibody Trastuzumab (concentration was 15 mg/mL) were replaced into 50 mM PB/1.0 mM EDTA buffer (pH 7.0) by a G25 desalting column, respectively. 12 equivalents of TECP was added and the mixture was stirred at 37° C. for 2 hours to fully open the disulfide bonds between the antibody chains. Then phosphoric acid was used to adjust the pH of the reduced antibody solution to 6.0, and the temperature of the water bath was lowered to 25° C. for coupling reaction. […] After the reaction was completed, the sample was filtered with a 0.22 μm membrane. Uncoupled small molecules were purified and removed by a tangential flow ultrafiltration system. The buffer was 50 mM PB/1.0 mM EDTA solution (pH 6.0). After purification, sucrose (final concentration was 6%) was added, and the mixture was stored in a refrigerator at −20° C. The UV method was used to measure the absorbance values at 280 nm and 370 nm respectively, and the DAR value was calculated.

A further data set relates to other antibodies. The data set is described as follows: Coupling of linker-drug conjugates with other / different antibodies. It counts as physicochemical. The settings on record: coupled with other / different antibodies.
In the next data set the test system is anti-B7-H3 antibody P2E5. The data set is described as follows: Coupling of linker-drug conjugates with P2E5. It counts as physicochemical. The settings on record: coupling with P2E5, highest DAR (excessive coupling). The method, then:
as §1

The subject of data set [2] is anti-HER2 antibody Trastuzumab. As to the kind of experiment: Coupling of linker-drug conjugates with Trastuzumab. It counts as physicochemical. The settings on record: highest DAR (excessive coupling). The method, then: as §1
The target of the next data set is cathepsin B (Homo sapiens, UniProt P07858). The data set is described as follows: In vitro enzyme cleavage experiment of linker-drug conjugates. It counts as in vitro ADME. The settings on record: pH 5.0 to pH 7.0. The procedure:
Linker-drug conjugates (LE14 and GGFG-Dxd) and cathepsin B were incubated in three different pH (5.0, 6.0, 7.0) buffers, and samples were taken at different time points into the high performance liquid chromatography-mass spectrometer. The release percentage of the drug was determined by external standard method (with Dxd as the external standard).

The next data set has as its system NCI-N87 cell line. The data set is described as follows: Killing activity on NCI-N87 before and after enzyme cleavage by cathepsin B system. It counts as cell-based, human. The settings on record: NCI-N87, 144 hours. An excerpt:
The NCI-N87 cell line was selected as the experimental cell line.

Where two headings read alike, the source gives them in different places. Starred links: 1 amine or outer side, 2 acyl side, 3 side chain; linkers in the order of their positions; H or OH if unused. Non-standard residues stand in square brackets, D forms with d. Residues, ends and D or L forms follow the SMILES beside them. *: point of attachment. Exatecan = CC[C@@]1(O)C(=O)OCc2c1cc1n(c2=O)Cc2c-1nc1cc(F)c(C)c3c1c2[C@@H](N*)CC3; Hexanoyl(6-maleimido) = O=C1C=CC(=O)N1CCCCCC(=O)*; NHCH2OCH2CO = O=C(COCN[*:1])[*:2]

As for `CC[C@@]1(O)C(=O)OCc2c1cc1n(c2=O)Cc2c-1nc1cc(F)c(C)c3c1c2[C@@H](NC(=O)COCNC(=O)CNC(=O)[C@H](Cc1ccccc1)NC(=O)CNC(=O)CNC(=O)CCCCCN1C(=O)C=CC1=O)CC3` [GGFG-Dxd, reference compound] ({Hexanoyl(6-maleimido)}-GGFG[NHCH2OCH2CO]-Exatecan), in data set [1], the Ratio of aggregates was 35% and the Whether precipitation result is “produced precipitation”. Also, in the data set with other antibodies, the “Precipitation (in words)” value is listed as “precipitation would be produced” and the “Ratio of aggregates (in words)” value was “high”. In the data set with anti-B7-H3 antibody P2E5, the Ratio of aggregates came out at 20% and the Whether precipitation entry is recorded as “produced precipitation”. Besides, in data set [2], the Ratio of aggregates worked out at 0.1%; the Whether precipitation result is “did not produce precipitation and No”. In addition, the “Enzyme cleavage speed (in words)” value at cathepsin B is “slower enzyme cleavage speed”.
As for `CC[C@@]1(O)C(=O)OC(=O)C2=C1C=C1c3nc4cc(F)c(C)c5c4c(c3CN1C2)[C@@H](NC(=O)COCN(CCS(C)(=O)=O)C(=O)OCc1ccc(NC(=O)[C@H](C)NC(=O)[C@@H](NC(=O)CCCCCN2C(=O)C=CC2=O)C(C)C)cc1)CC5` [LE14], the Ratio of aggregates in data set [1] turned out to be 2.5%; in the data set with anti-B7-H3 antibody P2E5 it was 1.3%; in data set [2] it was 0.3%. In addition, the Whether precipitation result (in data set [1]; in the data set with anti-B7-H3 antibody P2E5; in data set [2]) was “No” throughout. For the same compound, the “Enzyme cleavage speed (in words)” value on cathepsin B was “could quickly cleave”.
Consider `CC[C@@]1(O)C(=O)OCc2c1cc1n(c2=O)Cc2c-1nc1cc(F)c(C)c3c1c2[C@@H](NC(=O)COCNC(=O)CNC(=O)[C@H](Cc1ccccc1)NC(=O)[C@H](CS)NC(=O)[C@@H](NC(=O)CCCCCN1C(=O)C=CC1=O)C(C)C)CC3` [LE24] ({Hexanoyl(6-maleimido)}-VCFG[NHCH2OCH2CO]-Exatecan), for which the Ratio of aggregates in data set [1] worked out at 2.0%; with anti-B7-H3 antibody P2E5, 1.2%; in data set [2], 0.1%. The Whether precipitation result (in data set [1]; in the data set with anti-B7-H3 antibody P2E5; in data set [2]) was “No” each time.
Take `CCc1c2c(nc3ccc(O)cc13)-c1cc3c(c(=O)n1C2)COC(=O)[C@]3(O)CC` [SN38, 7-ethyl-10-hydroxycamptothecin]: the half-inhibitory concentration (IC50) – broadly, the midpoint of a concentration-inhibition curve – is 6.85 nM in the data set with NCI-N87 cell line (after cathepsin B system pH 5.0, 37° C., 4 hours, read-out: IC50 (Based on SN-38 equivalent), After enzyme cleavage) and 6.47 nM in the data set on NCI-N87 cell line (before cathepsin B cleavage, read-out: IC50 (Based on SN-38 equivalent), Before enzyme cleavage).
